Experimental data from the supplement of paper PMC10307832.

Key:
[1] = compound: Cc1cnc(CNC(=O)c2c(=O)c3ccc(N4CCCN(C)CC4)nc3n3c2sc2ccccc23)cn1 [CX-5461]; test: relative viability (nuclei count vs DMSO), 5 days (fraction); higher = more cells survive
How it was run: (§1)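 Viability was read as treated-well nuclei divided by vehicle-well nuclei, using the median across plates. Lung cancer cell lines in 1536-well plates were kept overnight at 37 °C, pinned with five √10-spaced library-drug doses, and after 5 days were Hoechst-stained, imaged at 4× and counted in MetaXpress. Plates passed only with control CV below 25% and at least one doubling.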

[2] = compound: O=C(Nc1cc(C(F)(F)F)cc(C(F)(F)F)c1)c1cc(Cl)ccc1O [IMD-0354]; test: as above
How it was run: as §1

| Cell Line | relative viability ([1]; 0.01 µM) | relative viability ([1]; 0.03162 µM) | relative viability ([1]; 0.1 µM) | relative viability ([1]; 0.3162 µM) | relative viability ([1]; 1 µM) | relative viability ([2]; 0.04 µM) | relative viability ([2]; 0.1265 µM) | relative viability ([2]; 0.4 µM) | relative viability ([2]; 1.265 µM) | relative viability ([2]; 4 µM) |
| --- | --- | --- | --- | --- | --- | --- | --- | --- | --- | --- |
| NCI-H1666 | 0.985 | 0.992 | 0.949 | 0.904 | 0.808 | 0.954 | 0.922 | 0.82 | 0.611 | 0.523 |
| NCI-H1703 | 0.955 | 1.06 | 0.91 | 1.09 | 0.569 | 1.11 | 1.02 | 0.507 | 0.282 | 0.14 |
| NCI-H1734 | 1.02 | 1.05 | 1 | 0.694 | 0.579 | 1.09 | 0.969 | 0.731 | 0.306 | 0.142 |
| NCI-H1755 | 1.09 | 1.03 | 1.01 | 1.01 | 0.901 | 0.989 | 1.02 | 0.76 | 0.454 | 0.26 |
| NCI-H1792 | 1.01 | 0.894 | 0.904 | 1.05 | 0.502 | 0.969 | 0.847 | 0.553 | 0.412 | 0.434 |
| NCI-H1793 | 0.989 | 1.1 | 0.875 | 0.997 | 0.942 | 1.09 | 0.759 | 0.499 | 0.229 | 0.213 |
| NCI-H1915 | 1.06 | 1.13 | 0.996 | 0.79 | 0.899 | 0.824 | 1.02 | 0.675 | 0.316 | 0.165 |
| NCI-H1944 | 1 | 1.14 | 0.994 | 0.358 | 0.318 | 0.866 | 0.981 | 0.653 | 0.74 | 0.156 |
| NCI-H1975 | 1.02 | 0.974 | 0.905 | 0.961 | 0.714 | 0.949 | 0.986 | 0.625 | 0.211 | 0.212 |
| NCI-H1993 | 1.06 | 1.08 | 1.01 | 0.952 | 0.993 | 0.939 | 0.89 | 0.648 | 0.555 | 0.567 |
| NCI-H2009 | 1.02 | 1.04 | 0.879 | 1.02 | 0.75 | 1.02 | 0.929 | 0.738 | 0.19 | 0.131 |
| NCI-H2023 | 1 | 0.903 |  | 0.648 | 0.0929 | 1.11 | 0.986 | 0.573 | 0.128 | 0.0998 |
| NCI-H2085 | 1.07 | 1.01 | 0.992 | 1.02 | 0.869 | 1.06 | 0.975 | 0.775 | 0.449 | 0.415 |
| NCI-H2087 | 1.26 | 1.16 | 1.02 | 1.01 | 0.717 | 1.02 | 1 | 0.382 | 0.11 | 0.152 |
| NCI-H2126 | 1 | 1.06 | 1.03 | 0.991 | 0.972 | 1.03 | 0.981 | 0.848 | 0.484 | 0.387 |
| NCI-H2170 | 1.03 | 1.02 | 1.08 | 1 | 1.02 | 0.956 | 1.02 | 0.777 | 0.806 | 0.226 |
| NCI-H2228 | 1.03 | 1.01 | 0.948 | 0.855 | 0.205 | 1.07 | 0.888 | 0.721 | 0.266 | 0.294 |
| NCI-H2342 | 0.997 | 1 | 0.834 | 1.04 | 0.889 | 1.03 | 1.05 | 0.764 | 0.633 | 0.476 |
| NCI-H2347 | 1.02 | 1.04 | 1.04 | 0.937 | 0.908 | 1.1 | 1.02 | 0.738 | 0.511 | 0.4 |
| NCI-H2405 | 1.03 | 0.995 | 1.01 | 0.897 | 0.864 | 1.08 | 1.09 | 0.7 | 0.278 | 0.332 |
| NCI-H3122 | 0.977 | 1.02 | 0.965 | 1.01 | 0.831 | 1.12 | 1.06 | 0.723 | 0.313 | 0.151 |
| PC-3 [JPC-3] | 1.03 | 1.05 | 1.11 | 1.01 | 0.974 | 1.06 | 1.03 | 0.829 | 0.341 | 0.306 |
| PC-14 | 1.08 | 1.04 | 0.956 | 1.01 | 0.599 | 1.18 | 1.05 | 0.52 | 0.317 | 0.129 |
| RERF-LC-KJ | 0.96 | 1.05 | 0.943 | 0.946 | 0.879 | 1.09 | 0.992 | 0.635 | 0.384 | 0.234 |
| SK-LU-1 | 1.08 | 1.07 | 1.04 | 1.07 | 0.736 | 1.16 | 0.97 | 0.581 | 0.488 | 0.277 |
| SK-MES-1 | 1.1 | 1.09 | 1.04 | 1.06 | 0.724 | 1.16 | 0.996 | 0.645 | 0.463 | 0.223 |
| SW 900 | 0.918 | 1.11 | 0.586 | 0.877 | 0.401 | 0.987 | 0.889 | 0.509 | 0.239 | 0.243 |
| SW 1573 | 0.94 | 0.978 | 0.689 | 0.656 | 0.33 | 1.15 | 0.916 | 0.548 | 0.22 | 0.13 |
